According to patent US9394335B2, “Esters of glycyrrhetinic acid, preparation and cosmetic applications thereof” (GIULIANI S.P.A., priority 2012, dated 2016):

Experiments:
[1] = test system: expression of the TNF-α gene in NCTC 2544 human keratinocytes; experiment: Inflammation assessment assay: expression of the TNF-α gene by RT-PCR in LPS-treated cells; format: cell-based; conditions: for anti-inflammatory effect (inhibiting the expression of the TNF-α gene): 2.5-5-10 μM, after 48 hrs of treatment; for anti-inflammatory effect (inhibiting the expression of the TNF-α gene) / inhibition of the expression of the TNF-α gene: LPS 5 μg/ml; for inhibition of the expression of the TNF-α gene: 48 hrs of treatment, compared to cells treated only with LPS
Protocol: The NCTC 2544 cells were treated at 37° C. for 48 hours, at 5% CO2, with: basal culture medium, containing 2.5% fetal bovine serum (negative control), with: basal culture medium, containing 2.5% fetal bovine serum supplemented with LPS (5 μg/ml) (positive control), with: basal culture medium, containing 2.5% fetal bovine serum supplemented with LPS (5 μg/ml) and 18-β-glycyrrhetinic acid (18-β) at a concentration of 2.5-5-10 μM, with: basal culture medium, containing 2.5% fetal bovine serum supplemented with LPS (5 μg/ml), and POLY-GLY-S at a concentration of 2.5-5-10 μM. The results are expressed as a percentage of inflammation as compared to cells treated with LPS. The values represent the mean values of 2 experiments in duplicate.
The anti-inflammatory effects of ester having formula (Ia) of Example 1 (referred to as ‘POLY-GLY-S’ for shortness of description) have been investigated in an in vitro inflammation model, on NCTC2544 human keratinocytes and using lipopolysaccharide (LPS) from E. coli as mediator of inflammatory state. The effect of derivative in the models used has been compared to that of 18-β-glycyrrhetic acid (referred to as ‘18-β’ for shortness of description).
Furthermore, the in vitro inflammatory potential of POLY-GLY-S towards a positive control (cells treated with 5 μg/ml lipopolysaccharide) was determined. The data obtained have been compared to those obtained, in the same experimental model, using 18-β.
Inflammation Assessment Assay
The expression of the TNF-α gene on NCTC 2544 cells was assessed by RT-PCR.
The gene expression analysis implies four steps: • 1. Cell treatment with active compounds for 48 hrs; • 2. RNA extraction; • 3. cDNA reverse transcription; • 4. quantitative […].
In experimental conditions, in connection with the results obtained in the previous MIT assay, POLY-GLY-S and 18-β have been tested at a concentration of 20 μM (final concentration in the culture medium). Both positive control and negative control have been tested.
When the cells (NCTC 2544 human keratinocytes) had reached about 80% confluence, they were removed with trypsin/EDTA and seeded at a density of 1×10^6 cells/ml in 12-well plates and then incubated at 37° C., 5% CO2 (24 h).
When the cells had reached about 80% confluence, the complete medium was removed; cells were washed with PBS 1× and incubated in EMEN (EBSS) with 2.5% FBS, supplemented with 2 mM L-glutamine, 1% NEAA solution and 1% antibiotic mixture at 37° C., 5% CO2 for at least 4 hrs.
POLY-GLY-S and 18-β were dissolved in EMEN supplemented with 2.5% FBS, 2 mM L-glutamine, 1% NEAA solution and 1% penicillin (10,000 U/ml)/streptomycin (10,000 μg/ml) mixture.
Controls only containing culture medium (negative control) and culture medium plus LPS (5 μg/ml) (positive control) have been included in each plate.
Cells were exposed to increasing concentrations of compounds to be tested, i.e. 2.5-5-10 μM.
To each well LPS at a concentration of 5 μg/ml was added. Each sample was tested in duplicate.
Then cells were incubated at 37° C., 5% CO2 for 24 hrs.
Total RNA was extracted from cells using a single homogeneous solution Tri-reagent (Sigma Aldrich) to isolate RNA following manufacturer's instructions.
The extracted and quantified total RNA was amplified using the “High-Capacity cDNA Reverse transcription Kit” (Applied Biosystems).
RT-PCR was carried out using TaqMan linear probes (Applied Biosystems). These probes are the most used and published detection system for qPCR applications. In stock probes and primer were selected based on previous specific bibliographic studies.
The relative quantification method was used where the gene relative concentration of interest (target) is compared with unknown samples to a calibrator or control sample (untreated cells).
10 μl TaqMan 2× Gene Expression master Mix and 1 μl 20× TaqMan Gene Expression were added to cDNA. […]

[2] = cited from earlier work
[3] = test system: NCTC 2544 human keratinocytes; experiment: MTT assay, cell viability; format: cell-based; conditions: for tolerability by NCTC2544 human keratinocytes: 2.5-5 and 10 μM
Protocol: The data represent mean values ±standard deviation. Each treatment was carried out in duplicate.
The data are expressed as mean values ±standard deviation. Each treatment was carried out in duplicate.
The MTT test is useful to assess in vitro cell viability following the treatment with diluted compounds. The MTT method has been used as an indirect measure of cell viability.
The effects on NCTC 2544 cell proliferation from compounds 18-β and POLY-GLY-S at different concentrations have been examined.
The cells have been plated at low densities and treated with different concentrations of active compounds and negative control, in culture medium EMEM, without phenol red supplemented at 10% with FCS, 2 mM L-glutamine, 1% NEAA solution and 1% antibiotic mixture for 24, 48 and 72 hours and cell viability has been assessed by the MTT assay. The cell viability percentage compared to control (FIGS. 1-2) has been calculated after 24, 48 and 72 hours of incubation. […] The same results have been obtained after a prolonged cells exposure (48-72 hours) to tested compounds for all the considered concentrations.

[4] = 24 hours of incubation, all tested concentrations (18-β 2.5-80 μM, ester (Ia) 0.625-80 μM)
[5] = prolonged exposure 48-72 hours, all considered concentrations

| Structure (SMILES) | anti-inflammatory effect (inhibiting the expression of the TNF-α gene) [1] | solubility in ethanol ([2]; ethanol) | solubility in oils ([2]; oils) | solubility in water ([2]; water) | tolerability by NCTC2544 human keratinocytes [3] | cytotoxic effect on NCTC2544 compared to control (MTT, % viability) [3, 4] | cytotoxic effect on NCTC2544 compared to control (MTT, % viability) [3, 5] | inhibition of the expression of the TNF-α gene ([1]; 2.5 μM) [%] | inhibition of the expression of the TNF-α gene ([1]; 5 μM) [%] | inhibition of the expression of the TNF-α gene ([1]; 10 μM) [%] | reduction of the expression of the TNF-α gene ([1]; all the concentrations assayed, 48 hours of incubation (conclusions)) |
| --- | --- | --- | --- | --- | --- | --- | --- | --- | --- | --- | --- |
| CC1(C)[C@@H](O)CC[C@]2(C)[C@H]3C(=O)C=C4[C@@H]5C[C@@](C)(C(=O)O)CC[C@]5(C)CC[C@@]4(C)[C@]3(C)CC[C@@H]12 [18-β, 18-Beta glycyrrhetinic acid, reference compound] | no longer had anti-inflammatory effect | soluble | insoluble | insoluble | well tolerated | none | same results |  |  |  |  |
| CC1(C)[C@@H](O)CC[C@]2(C)[C@H]3C(=O)C=C4[C@@H]5C[C@@](C)(C(=O)OCC(O)C(O)C(O)C(O)COCC(O)COCC(O)COCC(O)CO)CC[C@]5(C)CC[C@@]4(C)[C@]3(C)CC[C@@H]12 (stereo partly drawn) [POLY-GLY-S, glycyrrhetinic ester of polyglycerol-3-sorbitol] | significantly effective |  |  |  | well tolerated | none | same results | 43.99 | 40.71 | 54.36 | at least 50% |
